{"source": "patent US6114517A", "about": "“Methods of modulating tumor necrosis factor α-induced expression of cell adhesion molecules” (Isis Pharmaceuticals Inc., priority 1998, dated 2000)", "assay_type_in_all_cases": "cell-based, human", "key": {"Ki-ras protein": {"tested_on": "Ki-ras protein", "assay": "Ki-ras protein levels by Western blot in HMVEC", "conditions": "same blot stripped and blotted with Ki-ras-specific antibody", "protocol": "(§1) For determination of protein levels by Western blot, cellular extracts were prepared using […] of RIPA extraction buffer per 100-mm dish. The protein concentration was quantified by Bradford assay using the BioRad kit (BioRad, Hercules, Calif.). Equal amounts of protein were loaded on 10% or 12% SDS-PAGE mini-gel (Novex, San Diego, Calif.). Once transferred to PVDF membranes (Millipore, Bedford, Mass.), the membranes were then treated for a minimum of 2 hours with specific primary antibody followed by incubation with secondary antibody conjugated to HRP. The results were visualized by Enhanced Chemiluminescent (ECL) detection (New England BioLab, Beverly, Mass.). In some experiments, the blots were stripped in stripping buffer (2% SDS, 12.5 mM Tris, pH 6.8) for 30 minutes at 50° C. After extensive washing, the blots were blocked and blotted with different primary antibody.\nTo examine the effect of ISIS 15168 (SEQ ID NO. 4) on Ha-ras protein levels, total ras protein was immunoprecipitated using a pan-ras monoclonal antibody (Oncogene Science, Cambridge, Mass.). The precipitated proteins were analyzed by SDS-PAGE, and Ha-ras protein levels were determined by western blot using a monoclonal antibody specific for Ha-ras (Oncogene Science, Cambridge, Mass.). […] The kinetics of Ha-ras reduction was slower than that of c-raf. […]"}, "Ha-ras protein": {"tested_on": "Ha-ras protein", "assay": "Ha-ras protein levels, immunoprecipitation and Western blot in HMVEC", "conditions": "for Ha-ras protein expression: 48 hours following treatment", "protocol": "as §1\nTo examine the effect of ISIS 15168 (SEQ ID NO. 4) on Ha-ras protein levels, total ras protein was immunoprecipitated using a pan-ras monoclonal antibody (Oncogene Science, Cambridge, Mass.). The precipitated proteins were analyzed by SDS-PAGE, and Ha-ras protein levels were determined by western blot using a monoclonal antibody specific for Ha-ras (Oncogene Science, Cambridge, Mass.). […] The kinetics of Ha-ras reduction was slower than that of c-raf. The control oligonucleotide, ISIS 17552 (SEQ ID NO. 5), had no effect on Ha-ras protein level. The same blot was stripped and blotted a second time with a Ki-ras-specific antibody (Oncogene Science, Cambridge, Mass.)."}, "Ha-ras mRNA": {"tested_on": "Ha-ras mRNA", "assay": "Ha-ras mRNA levels by Northern blot in HMVEC", "protocol": "Human dermal microvascular cells (HMVEC-d; Clonetics, San Diego, Calif.) were cultivated in endothelial basal media (EBM, Clonetics) supplemented with 10% fetal bovine serum (HyClone, Logan, Utah). Cells were grown in 100 mm petri dishes until 70-80% confluent, then washed with PBS and OPTI-MEM (Life Technologies, Inc., Gaithersburg, Md.). The cells were then incubated in the presence of OPTI-MEM and […] LIPOFECTIN (a 1:1 (w/w) liposome formulation of the cationic lipid N-[1-(2,3-dioleyloxy)propyl]-n,n,n-trimethylammonium chloride (DOTMA), and dioleoyl phosphotidylethanolamine (DOPE) in membrane filtered water (Life Technologies, Gaithersburg, Md.), per 100 nM of oligonucleotide followed by addition of oligonucleotide at the appropriate concentrations.\nFor determination of mRNA levels by Northern blot, total RNA was prepared from cells by the guanidinium isothiocyanate procedure or by the Qiagen RNAEASY method (Qiagen, Santa Clarita, Calif.) at the indicated times after initiation of oligonucleotide treatment. Northern blot analysis was performed as described in Current Protocols in Molecular Biology (Ausubel, F. M., et al., (eds), 1987, Greene Publishing Assoc. and Wiley Interscience, New York). A glyceraldehyde 3-phosphate dehydrogenase (G3PDH) probe was purchased from Clontech (Palo Alto, Calif., Catalog Number 9805-1). RNA was quantified and normalized to G3PDH mRNA levels using a Molecular Dynamic PHOSPHORIMAGER (Sunnyvale, Calif.).\nISIS 15168 (SEQ ID NO. 4) is a 2'-O-methoxyethyl mixed backbone chimeric antisense oligonucleotide designed to hybridize with sequences contained within the human Ha-ras mRNA. To determine the effect of ISIS 15168 (SEQ ID NO. 4) on Ha-ras expression in endothelial cells, HMVEC were treated, as described in Example 2, with oligonucleotide and northern blotting was used to measure Ha-ras mRNA levels. A Ha-ras probe was generated from the plasmid, pbc-N1 (American Type Culture Collection, Manassas, Va.; catalog #41001), following the supplied instructions."}, "p38 MAPK": {"tested_on": "p38 MAPK", "assay": "TNF-α-stimulated p38 MAPK activity, in vitro kinase assay on extracts of treated cells", "conditions": "48 hours recovery, TNF-α 5 or 15 minutes", "protocol": "To examine the effect of the c-raf antisense oligonucleotide (ISIS 12854, SEQ ID NO. 2) on ERK, JNK, and p38 MAPK activities stimulated by TNF-α, in vitro kinase assays were performed on extracts derived from cells treated with ISIS 12854 (SEQ ID NO. 2). Cells were treated with oligonucleotides and induced with cytokines. At the indicated time, cells were lysed on ice and debris was removed by centrifugation. Protein concentration was measured by Bradford assay. Lysate containing equal amounts of protein were incubated with primary antibody-agarose conjugates (ERK and p38 assay; Santa Cruz Biotechnology, Santa Cruz, Calif.), or with JNK1-specific or JNK2-specific antibodies (JNK assay; Upstate Biotechnology, Lake Placid, N.Y.), overnight at 4° C.\nFor isoform-specific JNK assays, anti-rabbit IgG conjugated with agarose beads was added to cell extracts following JNK antibody treatment and wash steps and incubated for 2 hours at 4° C. […]\nCells were treated with the c-raf antisense compound, ISIS 12854 (SEQ ID NO. 2), allowed to recover for 48 hours, at which time TNF-α was added for 5 or 15 minutes prior to cell lysis and initiation of the kinase assays. […] Suitable substrates and ATP were added to the immunoprecipitated kinase complexes and the reaction mixes were analyzed on SDS-PAGE. […]"}}, "data": [{"substance": "ToCoAsGsTsAsAsTsAsGsCsCsCoCoAoCoAoToGoG [ISIS 17552, reference compound]", "values": [{"measurement": "effect on Ki-ras protein levels", "setting": "Ki-ras protein", "value": "No effect"}, {"measurement": "Ha-ras protein expression", "setting": "Ha-ras protein", "value": "no effect"}, {"measurement": "% mRNA Expression (Ha-ras)", "setting": "Ha-ras mRNA; 1 nM", "value": 103, "unit": "%"}, {"measurement": "% mRNA Expression (Ha-ras)", "setting": "Ha-ras mRNA; 5 nM", "value": 115, "unit": "%"}, {"measurement": "% mRNA Expression (Ha-ras)", "setting": "Ha-ras mRNA; 25 nM", "value": 96, "unit": "%"}, {"measurement": "% mRNA Inhibition (Ha-ras)", "setting": "Ha-ras mRNA; 25 nM", "value": 4, "unit": "%"}, {"measurement": "% mRNA Expression (Ha-ras)", "setting": "Ha-ras mRNA; 50 nM", "value": 109, "unit": "%"}, {"measurement": "% mRNA Expression (Ha-ras)", "setting": "Ha-ras mRNA; 100 nM", "value": 105, "unit": "%"}]}, {"substance": "ToCoCoCoGoCsCsTsGsTsGsAsCsAsToGoCoAoToT [ISIS 12854]", "values": [{"measurement": "Activation of p38 MAPK", "setting": "p38 MAPK", "value": "not affected"}]}, {"substance": "ToCoCsGsTsCsAsTsCsGsCsTsCoCoToCoAoGoGoG [ISIS 15168]", "values": [{"measurement": "effect on Ki-ras protein levels", "setting": "Ki-ras protein", "value": "No effect"}, {"measurement": "Ha-ras protein expression", "setting": "Ha-ras protein", "value": "dose-dependent reduction"}, {"measurement": "persistence of reduction of Ha-ras protein", "setting": "Ha-ras protein; following initial treatment", "value": "up to 72 hours"}, {"measurement": "% mRNA Expression (Ha-ras)", "setting": "Ha-ras mRNA; 1 nM", "value": 61, "unit": "%"}, {"measurement": "% mRNA Inhibition (Ha-ras)", "setting": "Ha-ras mRNA; 1 nM", "value": 39, "unit": "%"}, {"measurement": "% mRNA Expression (Ha-ras)", "setting": "Ha-ras mRNA; 5 nM", "value": 44, "unit": "%"}, {"measurement": "% mRNA Inhibition (Ha-ras)", "setting": "Ha-ras mRNA; 5 nM", "value": 56, "unit": "%"}, {"measurement": "% mRNA Expression (Ha-ras)", "setting": "Ha-ras mRNA; 25 nM", "value": 19, "unit": "%"}, {"measurement": "% mRNA Inhibition (Ha-ras)", "setting": "Ha-ras mRNA; 25 nM", "value": 81, "unit": "%"}, {"measurement": "% mRNA Expression (Ha-ras)", "setting": "Ha-ras mRNA; 50 nM", "value": 10, "unit": "%"}, {"measurement": "% mRNA Inhibition (Ha-ras)", "setting": "Ha-ras mRNA; 50 nM", "value": 90, "unit": "%"}, {"measurement": "% mRNA Expression (Ha-ras)", "setting": "Ha-ras mRNA; 100 nM", "value": 9, "unit": "%"}, {"measurement": "% mRNA Inhibition (Ha-ras)", "setting": "Ha-ras mRNA; 100 nM", "value": 91, "unit": "%"}]}]}
